Laboratory results from patent US20110091473A1, “NOVEL ANTIBODY THERAPIES” (GENMAB A/S, priority 2007, published 2011).

Assays:
[1] = system: CD20 on freshly isolated B cells; assay: CD20/CD21 MFI ratio on freshly isolated B cells of atorvastatin-treated patients; format: in vivo, human; settings: day 3 vs day 0 after single dose 80 mg atorvastatin; CD20 detected with the named mAb
Description: CD21 is a protein expressed by B cells. Its expression has been shown unaffected upon cholesterol depletion of a B cell line (Daudi) and for freshly isolated B cell enriched cell population of two independent donors (FIG. 26). Therefore, CD21 mAb binding is considered as an indicator for the amount of B cells present per staining. The MFI of CD20 mAb and CD21 mAb binding was identified by gating on viable cells in the lymphogate (FSC vs SSC), and subsequently on CD21+ cells when analyzing the MFI for the CD20 mAb. In order to be able to correlate the CD20 expression measured in between days CD20 mAb binding was quantitated relative to CD21 mAb binding within the same staining by calculating the ratio of MFI of CD20/CD21 mAb.
To determine CD20 and CD21 expression on B cells of hypercholesterolemic patients treated with atorvastatin PBMC were isolated out of whole blood drawn on day 0 (pre-treatment) and day 3 after treatment (as described in Example 7). Freshly isolated B cells were stained with different FITC-conjugated CD20 mAbs 2F2, 11B8, B1 (GlaxoSmithKline, Stevenage, United Kingdom) and PE-conjugated CD21 mAb (B-Ly4, BD Pharmingen, Franklin Lakes, N.J.) by 30 minutes incubation at room temperature in the dark. Cells were washed and mAb binding intensity (MFI) was analysed using a FACS Calibur (Becton Dickinson, Breda, The Netherlands).

[2] = system: freshly isolated human lymphoma B cells; assay: Rituximab-mediated CDC of freshly isolated human lymphoma B cells, MTT assay; format: cell-based; settings: 10 mg/ml MβCD 30 minutes; 400 μg/ml rituximab, 10% serum
Method: To extend these observations the influence of cholesterol depletion was studied in freshly isolated human lymphoma B cells. Tumor cells of three mantle cell lymphomas and a small B cell lymphoma were isolated out of bone marrow (10 ml) aspirated from the hip. The cell suspension was diluted twice with PBS (final volume 20 ml). 3 ml of Histopaque-1077 (Sigma Aldrich) was pipetted into two conical centrifuge tubes. 10 ml of diluted bone marrow was slowly layered on the top of Histopaque layer. Probes were centrifuged (400 g, 15 minutes, 25° C.) without brake. The white blood cell ring and plasma were isolated and washed twice with PBS. The leucocyte pellet was resuspeneded in 5 ml medium (RPMI or OptiMEM) and counted in a Bürker chamber using Turk dye. Cells were incubated with either diluent or MβCD (10 mg/ml) for 30 minutes. Treated cells were analyzed for their capacity to bind CD20 mAb as well as sensitivity for rituximab-mediated CDC induction.
For the rituximab-mediated CDC human CD20-positive lymphoma B cells were incubated with either diluent or 10 mg/ml MβCD for 30 minutes. […] The cytotoxic effects were measured in a MTT assay.

Substance | average decrease in CD20/CD21 MFI ratio [1] | rituximab-mediated CDC [2]
2F2: human anti-CD20 mAb, VH SEQ ID NO:1, VL SEQ ID NO:2, disclosed in WO 2004/035607 | 18% | –
rituximab: anti-CD20 antibody Rituxan/MabThera, type I | – | significantly decreased
